Data as given in PubChem BioAssay (NCI).
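Growth conditions: 96-well plates. Treatment: test compound, 48 hours, 5 concentrations. Analysis: linear interpolation between bracketing concentrations; unreached endpoints set to highest concentration. GI50 marks 50% less growth. The concentration for full growth arrest is given as TGI.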

Legend:
Experiment in all cases: NCI anticancer screen, dose series, 48 h
786-0 renal = tested on: 786-0 renal
A498 renal = tested on: A498 renal
A549 NSCLC = tested on: A549 NSCLC
ACHN renal = tested on: ACHN renal
BT-549 breast = tested on: BT-549 breast
CAKI-1 renal = tested on: CAKI-1 renal
CCRF-CEM leukemia = tested on: CCRF-CEM leukemia
COLO 205 colon = tested on: COLO 205 colon
DU-145 prostate = tested on: DU-145 prostate
EKVX NSCLC = tested on: EKVX NSCLC
HCC-2998 colon = tested on: HCC-2998 colon
HCT-116 colon = tested on: HCT-116 colon
HCT-15 colon = tested on: HCT-15 colon
HL-60(TB) leukemia = tested on: HL-60(TB) leukemia
HOP-62 NSCLC = tested on: HOP-62 NSCLC
HOP-92 NSCLC = tested on: HOP-92 NSCLC
HS 578T breast = tested on: HS 578T breast
HT29 colon = tested on: HT29 colon
K-562 leukemia = tested on: K-562 leukemia
KM12 colon = tested on: KM12 colon
LOX IMVI melanoma = tested on: LOX IMVI melanoma
M14 melanoma = tested on: M14 melanoma
MALME-3M melanoma = tested on: MALME-3M melanoma
MCF7 breast = tested on: MCF7 breast
MDA-MB-231 breast = tested on: MDA-MB-231 breast
MDA-MB-435 = tested on: MDA-MB-435
MOLT-4 leukemia = tested on: MOLT-4 leukemia
NCI-H23 lung = tested on: NCI-H23 lung
NCI-H460 lung = tested on: NCI-H460 lung
NCI-H522 lung = tested on: NCI-H522 lung
NCI/ADR-RES ovarian = tested on: NCI/ADR-RES ovarian
OVCAR-3 ovarian = tested on: OVCAR-3 ovarian
OVCAR-4 ovarian = tested on: OVCAR-4 ovarian
OVCAR-5 ovarian = tested on: OVCAR-5 ovarian
OVCAR-8 ovarian = tested on: OVCAR-8 ovarian
PC-3 prostate = tested on: PC-3 prostate
RPMI-8226 leukemia = tested on: RPMI-8226 leukemia
SF-268 CNS = tested on: SF-268 CNS
SF-295 CNS = tested on: SF-295 CNS
SF-539 CNS = tested on: SF-539 CNS
SK-MEL-2 melanoma = tested on: SK-MEL-2 melanoma
SK-MEL-28 melanoma = tested on: SK-MEL-28 melanoma
SK-OV-3 ovarian = tested on: SK-OV-3 ovarian
SN12C renal = tested on: SN12C renal
SNB-19 CNS = tested on: SNB-19 CNS
SNB-75 CNS = tested on: SNB-75 CNS
SR leukemia = tested on: SR leukemia
SW-620 colon = tested on: SW-620 colon
T-47D breast = tested on: T-47D breast
TK-10 renal = tested on: TK-10 renal
U251 CNS = tested on: U251 CNS
UACC-257 melanoma = tested on: UACC-257 melanoma
UACC-62 melanoma = tested on: UACC-62 melanoma
UO-31 renal = tested on: UO-31 renal

`CC(=O)Nc1c(Br)cc2c(c1Br)Cc1cc(Br)ccc1-2` showed a GI50 (786-0 renal) of 1.83 µM, a TGI (786-0 renal) of 3.43 µM and a GI50 (A498 renal) of 3.87 µM. For the same compound, the TGI (A498 renal) was 14.9 µM, the GI50 (A549 NSCLC) was 3.94 µM and the TGI (A549 NSCLC) was 14.8 µM. It also gave a GI50 (ACHN renal) of 3.17 µM, a TGI (ACHN renal) of 14.1 µM and a GI50 (BT-549 breast) of 2.83 µM. For the same compound, the TGI (BT-549 breast) was 13.4 µM, the GI50 (CAKI-1 renal) was 1.98 µM and the TGI (CAKI-1 renal) was 10.7 µM. It also gave a GI50 (CCRF-CEM leukemia) of 24.1 µM, a TGI (CCRF-CEM leukemia) of over 100 µM and a GI50 (COLO 205 colon) of 2.44 µM. For the same compound, the TGI (COLO 205 colon) was 13.1 µM, the GI50 (DU-145 prostate) was 6.44 µM and the TGI (DU-145 prostate) was 21.4 µM. It also gave a GI50 (EKVX NSCLC) of 0.392 µM, a TGI (EKVX NSCLC) of 13.8 µM and a GI50 (HCC-2998 colon) of 3.01 µM. The TGI (HCC-2998 colon) was 11.8 µM, the GI50 (HCT-116 colon) was 2.76 µM and the TGI (HCT-116 colon) was 10.9 µM. For the same compound, the GI50 (HCT-15 colon) was 12.3 µM, the TGI (HCT-15 colon) was over 100 µM and the GI50 (HL-60(TB) leukemia) was 50.5 µM. For the same compound, the TGI (HL-60(TB) leukemia) was over 100 µM, the GI50 (HOP-62 NSCLC) was 2.51 µM and the TGI (HOP-62 NSCLC) was 13.9 µM. The GI50 (HOP-92 NSCLC) was 0.675 µM, the TGI (HOP-92 NSCLC) was 22.5 µM and the GI50 (HS 578T breast) was 1.96 µM. It also gave a TGI (HS 578T breast) of 5.73 µM, a GI50 (HT29 colon) of 24.3 µM and a TGI (HT29 colon) of over 100 µM. It also gave a GI50 (K-562 leukemia) of 59.9 µM, a TGI (K-562 leukemia) of over 100 µM and a GI50 (KM12 colon) of 11.6 µM. The TGI (KM12 colon) was 55.1 µM, the GI50 (LOX IMVI melanoma) was 2.28 µM and the TGI (LOX IMVI melanoma) was 6.6 µM. It also gave a GI50 (M14 melanoma) of 3.7 µM, a TGI (M14 melanoma) of 18.3 µM and a GI50 (MALME-3M melanoma) of 7.26 µM. The TGI (MALME-3M melanoma) was 53.4 µM, the GI50 (MCF7 breast) was 9.29 µM and the TGI (MCF7 breast) was 96.1 µM. It also gave a GI50 (MDA-MB-231 breast) of 5.11 µM, a TGI (MDA-MB-231 breast) of 20.3 µM and a GI50 (MDA-MB-435) of 4.15 µM. It also gave a TGI (MDA-MB-435) of 21.1 µM, a GI50 (MOLT-4 leukemia) of over 100 µM and a TGI (MOLT-4 leukemia) of over 100 µM. The GI50 (NCI-H23 lung) was 3.64 µM, the TGI (NCI-H23 lung) was 16 µM and the GI50 (NCI-H460 lung) was 2.94 µM. It also gave a TGI (NCI-H460 lung) of 11.4 µM, a GI50 (NCI-H522 lung) of 27 µM and a TGI (NCI-H522 lung) of over 100 µM. It also gave a GI50 (NCI/ADR-RES ovarian) of 3.38 µM, a TGI (NCI/ADR-RES ovarian) of 13.6 µM and a GI50 (OVCAR-3 ovarian) of 8.42 µM. The TGI (OVCAR-3 ovarian) was 21.1 µM, the GI50 (OVCAR-4 ovarian) was 2.47 µM and the TGI (OVCAR-4 ovarian) was 6.6 µM. For the same compound, the GI50 (OVCAR-5 ovarian) was 12 µM, the TGI (OVCAR-5 ovarian) was 27 µM and the GI50 (OVCAR-8 ovarian) was 4.62 µM. The TGI (OVCAR-8 ovarian) was 18.8 µM, the GI50 (PC-3 prostate) was 10.3 µM and the TGI (PC-3 prostate) was 26.2 µM. The GI50 (RPMI-8226 leukemia) was 50.5 µM, the TGI (RPMI-8226 leukemia) was over 100 µM and the GI50 (SF-268 CNS) was 9.04 µM. The TGI (SF-268 CNS) was 41 µM, the GI50 (SF-295 CNS) was 1.61 µM and the TGI (SF-295 CNS) was 3.76 µM. For the same compound, the GI50 (SF-539 CNS) was 13.6 µM, the TGI (SF-539 CNS) was 33.2 µM and the GI50 (SK-MEL-2 melanoma) was 12.6 µM. The TGI (SK-MEL-2 melanoma) was 32.7 µM, the GI50 (SK-MEL-28 melanoma) was 5.54 µM and the TGI (SK-MEL-28 melanoma) was 24.4 µM. For the same compound, the GI50 (SK-OV-3 ovarian) was 4.22 µM, the TGI (SK-OV-3 ovarian) was 17.2 µM and the GI50 (SN12C renal) was 4.67 µM. The TGI (SN12C renal) was 18.9 µM, the GI50 (SNB-19 CNS) was 12.8 µM and the TGI (SNB-19 CNS) was 43 µM. For the same compound, the GI50 (SNB-75 CNS) was 1.24 µM, the TGI (SNB-75 CNS) was 3.31 µM and the GI50 (SR leukemia) was 6.87 µM. For the same compound, the TGI (SR leukemia) was 31.1 µM, the GI50 (SW-620 colon) was 3.97 µM and the TGI (SW-620 colon) was 15.6 µM. It also gave a GI50 (T-47D breast) of 3.34 µM, a TGI (T-47D breast) of over 100 µM and a GI50 (TK-10 renal) of 12.4 µM. The TGI (TK-10 renal) was 26.1 µM, the GI50 (U251 CNS) was 3.32 µM and the TGI (U251 CNS) was 12.4 µM. For the same compound, the GI50 (UACC-257 melanoma) was 19.3 µM, the TGI (UACC-257 melanoma) was over 100 µM and the GI50 (UACC-62 melanoma) was 11.1 µM. It also gave a TGI (UACC-62 melanoma) of over 100 µM, a GI50 (UO-31 renal) of 0.581 µM and a TGI (UO-31 renal) of 13.7 µM.
